The target of series [1] is T1, eIF4E (Homo sapiens, UniProt P06730). Nature of the series: Fluorescence polarisation (FP) assay: displacement of EDA-m^7GDP-ATTO-465 tracer from eIF4E. Particulars: for inhibition at 100 µM: read-out: FP assay Inhibition (%); for FP assay Inhibition (%): at 100 μM, tracer 10 nM, eIF4E 90 nM. A general note: Polarisation of emitted light reports the rotation of a fluorescent probe.

Series [2] addresses T1, eIF4E. Nature of the series: Radiolabelled capped RNA - eIF4E UV cross-linking competition assay. Type of series: binding. The following applies: capped RNA 5 nM, eIF4E 1.5 μM; for RNA cross-linking assay Inhibition (%): at 100 μM. More on the design: Expression and purification of eIF4E followed a modified procedure of that already published; made in house.
Series [3] has as its system cap-dependent and HCV IRES-driven translation in rabbit reticulocyte lysate. Put plainly: Rabbit reticulocyte lysate primed with bicistronic pRHCVF RNA (cap-dependent Renilla / HCV IRES firefly luciferase). The following applies: relative to 1% DMSO control. It is filed as biochemical.
The subject of the next series is HeLa cells. Put plainly: ^35S-Met incorporation assay (HeLa). The following applies: HeLa cells, 24 h incubation.
The next series relates to MCF-7 cells. Put plainly: ^35S-Met incorporation assay (MCF-7). The following applies: MCF-7 cells.
For series [4], the target named is rabbit reticulocyte lysate (RRL) system, luciferase synthesis. Put plainly: Rabbit reticulocyte lysate in vitro translation assay primed with luciferase RNA. Type of series: biochemical. Particulars: luciferase expression.

This note sets out measurements from PMC5111791, “Design of nucleotide-mimetic and non-nucleotide inhibitors of the translation initiation factor eIF4E: Synthesis, structural and functional characterisation” (European Journal of Medicinal Chemistry, 2016).

As usually defined, the inhibition is the percentage by which the read-out fell short of the control. By melting point is commonly meant the temperature, or range, at which the solid turns liquid. The term IC50 denotes the concentration that gives 50% inhibition. A lower IC50 goes with greater potency in that assay.

T1 sequence (P06730 whole entry): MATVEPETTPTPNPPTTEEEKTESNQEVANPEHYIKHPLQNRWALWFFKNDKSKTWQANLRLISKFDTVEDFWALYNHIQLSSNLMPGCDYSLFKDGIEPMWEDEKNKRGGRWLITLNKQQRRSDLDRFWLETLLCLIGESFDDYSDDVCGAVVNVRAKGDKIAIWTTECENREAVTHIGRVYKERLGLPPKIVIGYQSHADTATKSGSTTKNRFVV

`C[n+]1cn([C@@H]2O[C@H](CNc3c(O)c(=O)c3=O)[C@@H](O)[C@H]2O)c2nc(N)[nH]c(=O)c21` [Compound 4a, 5′-Deoxy-5′-(1,2-dioxo-3-hydroxycyclobut-3-en-4-yl)amino-N^7-methyl-guanosine] came in with a melting point of 192 to 194 °C. Also, the inhibition at 100 µM on eIF4E [1] was found to be 14.4 ± 3.2%. Further, the “RNA cross-linking assay Inhibition (%)” value at eIF4E [2] is “Inactive”.

In turn, `Nc1nc2c(c(=O)[nH]1)[n+](Cc1ccccc1)cn2[C@@H]1O[C@H](CNc2c(O)c(=O)c2=O)[C@@H](O)[C@H]1O` [Compound 4b, N^7-Benzyl-5′-deoxy-5′-(1,2-dioxo-3-hydroxy-cyclobut-3-en-4-yl)amino-guanosine] had a melting point of 186 to 188 °C. Also, at eIF4E [1], the inhibition at 100 µM was determined as 9.1 ± 5.5%. Also, the “RNA cross-linking assay Inhibition (%)” value at eIF4E [2] is given as “Inactive”.

In turn, `Cc1cccc(C[n+]2cn([C@@H]3O[C@H](CNc4c(O)c(=O)c4=O)[C@@H](O)[C@H]3O)c3nc(N)[nH]c(=O)c32)c1` [Compound 4c, 5′-Deoxy-5′-(1,2-dioxo-3-hydroxycyclobut-3-en-4-yl)amino-N^7-3-methylbenzyl-guano-sine] displayed a melting point of 187 to 190 °C. Further, the inhibition at 100 µM at eIF4E [1] came out at 15.2 ± 4.7%. Also, the “RNA cross-linking assay Inhibition (%)” value at eIF4E [2] is on record as “Inactive”.

For `COc1cccc(C[n+]2cn([C@@H]3O[C@H](CNc4c(O)c(=O)c4=O)[C@@H](O)[C@H]3O)c3nc(N)[nH]c(=O)c32)c1` [Compound 4d, 5′-Deoxy-5′-(1,2-dioxo-3-hydroxycyclobut-3-en-4-yl)amino-N^7-3-methoxybenzyl-guano-sine], the melting point fell in the range of 177 to 179 °C. Moreover, on eIF4E [1], the inhibition at 100 µM amounted to 2 ± 6.3%. Also, on eIF4E [2], the “RNA cross-linking assay Inhibition (%)” value is given as “Inactive”.

`Nc1nc2c(c(=O)[nH]1)[n+](Cc1cccc(C(F)(F)F)c1)cn2[C@@H]1O[C@H](CNc2c(O)c(=O)c2=O)[C@@H](O)[C@H]1O` [Compound 4e, 5′-Deoxy-5′-(1,2-dioxo-3-hydroxycyclobut-3-en-4-yl)amino-N^7-3-(trifluoromethyl)benz-yl-guanosine]: the melting point lay in the range of 221 to 224 °C. Besides, at eIF4E [1], the “FP assay Inhibition (%)” value is “Inactive”. In addition, the “RNA cross-linking assay Inhibition (%)” value on eIF4E [2] is given as “Inactive”.

Compound `Nc1nc2c(c(=O)[nH]1)[n+](Cc1cccc(Cl)c1)cn2[C@@H]1O[C@H](CNc2c(O)c(=O)c2=O)[C@@H](O)[C@H]1O` [Compound 4f, N^7-3-Chlorobenzyl-5′-deoxy-5′-(1,2-dioxo-3-hydroxycyclobut-3-en-4-yl)aminoguanosine] showed a melting point of 193 to 195 °C. Moreover, the inhibition at 100 µM on eIF4E [1] is 13.2 ± 4.2%. In addition, at eIF4E [2], the “RNA cross-linking assay Inhibition (%)” value is “Inactive”.

`Nc1nc2c(c(=O)[nH]1)[n+](Cc1ccc(F)cc1)cn2[C@@H]1O[C@H](CNc2c(O)c(=O)c2=O)[C@@H](O)[C@H]1O` [Compound 4g, 5′-Deoxy-5′-(1,2-dioxo-3-hydroxycyclobut-3-en-4-yl)amino-N^7-4-flurobenzyl-guanosine]: the inhibition at 100 µM on eIF4E [1] turned out to be 3.9 ± 5.2%. The “RNA cross-linking assay Inhibition (%)” value on eIF4E [2] was “Inactive”.

In the case of `CC(C)c1ccc(C[n+]2cn([C@@H]3O[C@H](CNc4c(O)c(=O)c4=O)[C@@H](O)[C@H]3O)c3nc(N)[nH]c(=O)c32)cc1` [Compound 4h, 5′-Deoxy-5′-(1,2-dioxo-3-hydroxycyclobut-3-en-4-yl)amino-N^7-4-isopropylbenzyl-guanosine], the melting point is 167 to 169 °C. The inhibition at 100 µM on eIF4E [1] was 1.8 ± 7.7%. The compound also returned an inhibition at 100 µM on eIF4E [2] of 6.5 ± 7.1%.

For the compound `CC(C)(C)c1cc(C[n+]2cn([C@@H]3O[C@H](CNc4c(O)c(=O)c4=O)[C@@H](O)[C@H]3O)c3nc(N)[nH]c(=O)c32)cc(C(C)(C)C)c1` [Compound 4i, N^7-3,5-(di-tert-butyl)benzyl-5′-deoxy-5′-(1,2-dioxo-3-hydroxycyclobut-3-en-4-yl)amino-guanosine], the “FP assay Inhibition (%)” value at eIF4E [1] is recorded as “Inactive”. Moreover, the “RNA cross-linking assay Inhibition (%)” value on eIF4E [2] is recorded as “Inactive”.

As to `Nc1nc2c(c(=O)[nH]1)[n+](Cc1ccccc1)cn2[C@@H]1O[C@H](CNS(=O)(=O)C(F)(F)F)[C@@H](O)[C@H]1O` [Compound 7a], in series [3], the “Effect on HCV-IRES mediated (cap-independent) firefly luciferase translation” value is “no effect” and the “Effect on cap-dependent Renilla luciferase synthesis” value was “inhibition”. Also, in the series on HeLa cells, the “^35S-Met incorporation assay IC50 (HeLa)” value is “Inactive”. Also, the “^35S-Met incorporation assay IC50 (MCF-7)” value in the series with MCF-7 cells is “Inactive”. In addition, at eIF4E [1], the inhibition at 100 µM turned out to be 89 ± 1.7%. Also, the midpoint of inhibition in series [4], the IC50, lay at 65.9 ± 13.6 µM. Also, testing at 100 µM on eIF4E [2] gave an inhibition of 42.9 ± 4.8%.

On to `C[n+]1cn([C@@H]2O[C@H](CNC(=O)Cc3nnn[nH]3)[C@@H](O)[C@H]2O)c2nc(N)[nH]c(=O)c21` [Compound 11a], for which the figures for the inhibition at 100 µM at eIF4E [1] and on eIF4E [2] were 9.7 ± 2.9% and 25.8 ± 2.9%, respectively.

In the case of `CCOc1ccc(-n2c(SCC(=O)O)nnc2-c2cccnc2)cc1` [Compound 12a], the inhibition at 100 µM at eIF4E [1] came to 13.6 ± 2.2%; on eIF4E [2], 10.2 ± 3.3%.

In the case of `Cc1ccc(-n2c(SCC(N)=O)nnc2-c2ccncc2)cc1` [Compound 12b], at eIF4E [1], the inhibition at 100 µM turned out to be 25.8 ± 5.9%. In addition, the “RNA cross-linking assay Inhibition (%)” value at eIF4E [2] is recorded as “Inactive”.

As to `Cc1ccc(-n2c(SCC(N)=O)nnc2-c2cccnc2)cc1` [Compound 12c], the inhibition at 100 µM on eIF4E [1] is 8.5 ± 2.8%. Further, on eIF4E [2], the “RNA cross-linking assay Inhibition (%)” value was “Inactive”.

Regarding `Cc1cc2cc(C(c3nnnn3C3CCCC3)N3CCC(C)CC3)c(=O)[nH]c2cc1C` (centres unmarked) [Compound 13], the “FP assay Inhibition (%)” value at eIF4E [1] is reported as “Inactive”. Moreover, the “RNA cross-linking assay Inhibition (%)” value at eIF4E [2] is listed as “Inactive”.

As for `N=C1NC(=O)/C(=C/c2ccc(Sc3ccc(Cl)cc3)o2)S1` [Compound 15], the “FP assay Inhibition (%)” value at eIF4E [1] is “Inactive”. Also, 100 µM produced 3.5 ± 3.2% inhibition on eIF4E [2].

Take `O=C1CC(c2c(Cl)cccc2Cl)c2c(n3ccsc3nc2=O)N1` (centres unmarked) [Compound 16]: the “FP assay Inhibition (%)” value at eIF4E [1] was “Inactive”. At eIF4E [2], this compound had an inhibition at 100 µM of 33.8 ± 8.1%.

In the case of `Cn1c[n+]([C@@H]2O[C@H](COP(=O)(O)O)[C@@H](O)[C@H]2O)c2nc(N)[nH]c(=O)c21` [m^7GMP, m^7G monophosphate, reference compound], in the series with HeLa cells, the “^35S-Met incorporation assay IC50 (HeLa)” value is listed as “Inactive”. Also, the “^35S-Met incorporation assay IC50 (MCF-7)” value in the series with MCF-7 cells is “Inactive”. The half-inhibitory concentration (IC50) in series [4] was determined as 46.9 ± 3.4 µM.

The compound `Cn1c[n+]([C@@H]2O[C@H](COP(=O)([O-])OP(=O)(O)OP(=O)(O)O)[C@@H](O)[C@H]2O)c2nc(N)[nH]c(=O)c21` [m^7GTP, reference compound] displayed an IC50 in series [4] of 8.6 ± 1.1 µM.
